Where two headings read alike, the source gives them in different places.
Key:
pspA = assay: Amplification of pspA by PCR with oligonucleotides as 5' primers and 3' primer LSM2 (Example 11); set-up: species or system Streptococcus pneumoniae; conditions: 5′ primer in combination with 3′-primer LSM2, 14 strains
Description: These oligonucleotides were synthesized by Oligos, Etc.
PCR was done with an MJ Research, Inc., Programmable Thermal Cycler (Watertown, Mass.), using approximately 10 ng of genomic pneumococcal DNA as template with designated 5′ and 3′ primer pairs. The sample was brought to a total volume of 50 μl containing a final concentration of 50 mM KCl, 10 mM Tris-HCl (pH 8.3), 1.5 mM MgCl2, 0.01% gelatin, 0.5 μM of each primer, 200 μM of each deoxynucleoside triphosphate, and 2.5 U of Taq DNA polymerase. The samples were denatured at 94° C. for 2 minutes and subjected to 10 cycles consisting of: 1 min at 94° C., 2 min at 50° C., and 3 min at 72° C., followed by 20 cycles of: 1 min at 94° C., 2 min at 60° C., and 3 min at 72° C. After 30 total cycles, the samples were held at 72° C. for an additional 5 min prior to cooling to 4° C. The amplicons were then analyzed by agarose gel electrophoresis.

[1] = tested on: S. pneumoniae isolates MC25, MC26, MC27, MC28; assay type: cell-based, Streptococcus pneumoniae

| Substance | Amplified/Tested (pspA) | Percent Amplified (pspA) | Penicillin MIC ([1]; isolate MC25) | Penicillin MIC ([1]; isolate MC26) | Penicillin MIC ([1]; isolate MC27) | Penicillin MIC ([1]; isolate MC28) |
| --- | --- | --- | --- | --- | --- | --- |
| LSM111 (DNA CCGGATCCAGCTCCTGCACCAAAAC; chemistry not given here) | 14/14 | 100% | – | – | – | – |
| Penicillin | – | – | 1 µg/mL | 4 µg/mL | 1 µg/mL | 2 µg/mL |
